Assay results reported in ChEMBL document CHEMBL4270639, “Design of PPAR-γ agonist based on algal metabolites and the endogenous ligand 15-deoxy-Δ12, 14-prostaglandin J2” (Eur J Med Chem, 2018).
Activity calls are given as the source filed them. No cut-off for these calls is given here.

tested on: not listed separately; assay: Cytotoxicity against rat Ac2F cells assessed as decrease in cell viability after 24 hrs by WST assay; assay type: cell-based

With COC(=O)CC1CCC(=O)C1=CC1CCCCC1 (stereo not drawn) as the compound, how does the Activity read?
The Activity was “Non-Toxic”.

biological target: T1, Peroxisome proliferator-activated receptor gamma (Homo sapiens) (UniProt P37231); assay: Transactivation of full length human FLAG-tagged PPARgamma1 LBD expressed in rat Ac2F cells at 5 to 10 uM after 6 hrs by luciferase reporter gene assay; assay type: cell-based
T1 sequence (whole entry): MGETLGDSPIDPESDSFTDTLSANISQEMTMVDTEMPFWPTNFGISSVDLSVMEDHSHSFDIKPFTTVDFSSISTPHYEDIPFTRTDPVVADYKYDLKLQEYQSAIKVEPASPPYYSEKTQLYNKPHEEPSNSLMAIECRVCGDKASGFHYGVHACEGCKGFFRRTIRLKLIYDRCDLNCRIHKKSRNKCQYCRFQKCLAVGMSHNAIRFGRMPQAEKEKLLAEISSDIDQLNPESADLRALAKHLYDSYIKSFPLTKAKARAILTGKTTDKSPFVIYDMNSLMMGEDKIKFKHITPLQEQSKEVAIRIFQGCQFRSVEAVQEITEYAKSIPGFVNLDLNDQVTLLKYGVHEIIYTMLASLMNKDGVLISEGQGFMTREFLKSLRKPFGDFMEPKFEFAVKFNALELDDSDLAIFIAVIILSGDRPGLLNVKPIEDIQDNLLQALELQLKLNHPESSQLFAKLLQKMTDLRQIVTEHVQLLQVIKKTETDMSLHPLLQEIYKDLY

Which Activity does the source give for CCCCCCCCC=C1C(=O)CCC1CC(=O)OC (stereo not drawn) here?
The Activity was “inactive”.

For COC(=O)CC1CCC(=O)C1=CC(OC)OC (stereo not drawn), which Activity is on record?
The Activity was “Active”.

For CCCCCCC=C1C(=O)CCC1CC(=O)OC (stereo not drawn), which Activity is on record?
Its Activity is “inactive”.

With COC(=O)CC1CCC(=O)C1=CCc1ccccc1 (stereo not drawn) as the compound, how does the Activity read?
Its Activity is “Active”.

With COC(=O)CC1CCC(=O)/C1=C\CCc1ccccc1 (stereo not drawn) as the compound, how does the Activity read?
The Activity was “inactive”.

With CCOC(=O)C[C@@H]1CCC(=O)/C1=C/C1CCCCC1 as the compound, how does the Activity read?
Its Activity is “Active”.

With COC(=O)CC1CCC(=O)C1=CCC(C)C (stereo not drawn) as the compound, how does the Activity read?
The Activity was “Active”.

Which Activity does the source give for COC(=O)CC1CCC(=O)C1=CC(C)c1ccccc1 (stereo not drawn) here?
Its Activity is “inactive”.

With CCOC(=O)C[C@H]1CCC(=O)/C1=C/C1CCCCC1 as the compound, how does the Activity read?
Its Activity is “Active”.

Which Activity does the source give for COC(=O)CC1CCC(=O)/C1=C/C1CCCCC1 (stereo not drawn) here?
Its Activity is “Active”.

With COC(=O)CC1CCC(=O)C1=CC(c1ccccc1)c1ccccc1 (stereo not drawn) as the compound, how does the Activity read?
The Activity was “inactive”.

With CCCCC(C=C1C(=O)CCC1CC(=O)OC)CC (stereo not drawn) as the compound, how does the Activity read?
Its Activity is “Active”.

With CCCC=C1C(=O)CCC1CC(=O)OC (stereo not drawn) as the compound, how does the Activity read?
The Activity was “inactive”.

With CCCCCCCC=C1C(=O)CCC1CC(=O)OC (stereo not drawn) as the compound, how does the Activity read?
Its Activity is “inactive”.

Which Activity does the source give for CCCCC=C1C(=O)CCC1CC(=O)OC (stereo not drawn) here?
Its Activity is “inactive”.

Which Activity does the source give for COC(=O)CC1CCC(=O)C1=CC1CCCC1 (stereo not drawn) here?
Its Activity is “Active”.

For CCOC(=O)CC1CCC(=O)/C1=C/C1CCCCC1 (stereo not drawn), which Activity is on record?
Its Activity is “Active”.

Which Activity does the source give for CCC=C1C(=O)CCC1CC(=O)OC (stereo not drawn) here?
Its Activity is “inactive”.

With COC(=O)CC1CCC(=O)C1CC1CCCCC1 (stereo not drawn) as the compound, how does the Activity read?
Its Activity is “inactive”.

With COC(=O)CC1CCC(=O)/C1=C/CCc1ccccc1 (stereo not drawn) as the compound, how does the Activity read?
Its Activity is “inactive”.

For O=C(O)CC1CCC(=O)/C1=C/C1CCCCC1 (stereo not drawn), which Activity is on record?
The Activity was “Active”.

With COC(=O)CC1CCC(=O)C1=CC1CCCCC1 (stereo not drawn) as the compound, how does the Activity read?
Its Activity is “Active”.
